Reference: PMC13576449, “Small-Molecule Activators of PRMT1: Discovery, SAR Analyses, and Proapoptotic Effects in Pancreatic Cancer Cells” (Journal of Medicinal Chemistry, 2026)

Legend:
PANC-1 cells = test: CaspaseGlo 3/7 apoptosis assay, PANC-1; format: cell-based, human; conditions: 72 h
Protocol: 6 Effect of small-molecule modulators on gemcitabine-induced apoptosis and tumor growth of PDAC cells. […] After 2 h, gemcitabine (GEM) was added at increasing concentrations (10 and 25 nM) or not (−) for another incubation of 72 h. Subsequently, the luminescence-based caspase3/7 assay was performed. The activity of caspase 3/7 in treated cells was normalized to the activity measured in untreated cells (dark gray bar), which was set to 1 (mean SD, n = 6 for PANC-1 and n = 4 for PaTu8988T; *: p ≤ 0.05, **: p ≤ 0.01, ***: p ≤ 0.001, using the student t-test). […] After 24 h, gemcitabine (GEM, 1 μM) was added (+) or not (−) for another incubation of 48 h. Subsequently, the apoptotic cell fraction was quantified in % by flow cytometry using FITC-labeled Annexin V (AV) and propidium iodide (PI) staining (in B: mean ± SD, n = 6 for PANC-1 and n = 5 for PaTu8988T; **: p ≤ 0.01, ***: p ≤ 0.001, ****: p ≤ 0.0001, using the student t-test). […] Viable cells are AV/PI double-negative (AV–/PI–, lower left quadrant, Q4), early apoptotic cells are AV single-positive (AV+/PI– upper left quadrant, Q1), late apoptotic cells are AV/PI double-positive (AV+/PI+, upper right quadrant, Q2), and necrotic cells are PI single-positive (AV–/PI+, lower right quadrant, Q3). The sum of early and late apoptotic cell numbers ([…] in %) is indicated in red. D-G: The workflow of the PDAC xenograft experiments in mice is depicted in D. PANC-1 cells (2 × 10^6 cells/mouse) were subcutaneously (s.c.) injected in the right flank of female athymic nude mice. Small tumor nodules appeared 6 days post-engraftment. […] Tumor volumes were measured every second day using a digital caliper. […] At the end of the 2 weeks, mice were sacrificed and tumors were dissected (F).
For quantification of apoptosis using the CaspaseGlo 3/7 assay (Promega), PANC-1 and PaTu8988T cells were seeded in triplicates in white 96-well plate (5 × 10^3 cells/well) and cultured in the absence or presence of compounds. After 2 h, as soon as the cells had settled, gemcitabine was added or not, and cells were incubated for another 72 h. Subsequently, the caspase3/7 activity was measured using the luminescence-based CaspaseGLO-3/7 assay (Promega). To this end, the CaspaseGlo reagent was subsequently added to the cells at a 1:1 ratio and incubated at room temperature and under agitation for 30 min protected from light. The luminescence measurements were carried out using a microplate reader (Mithras LB 940, Berthold).

FLAG-tagged PRMT3 = target: T1, FLAG-tagged PRMT3 (Homo sapiens, UniProt O60678); test: Fluorescence-based in vitro PRMT assay (F-PRMT assay), PRMT3; format: biochemical; conditions: for Experimental result (PRMT3): vs solvent control = 100%
T1 construct: The complete ORFs of human PRMT3 and PRMT6 were inserted; made in house; host or cells: Sf9 insect cells (baculovirus)
Excerpt: To evaluate the effects of the selected candidate molecules on the catalytic activity of type I enzymes, we employed a quantitative fluorescence-based in vitro PRMT activity (F-PRMT) assay using recombinant FLAG-tagged PRMT proteins expressed and affinity-purified from baculovirus-infected Sf9 cells (SI Figure S1, SI Figure S2A).
Human cell lines (PaTu8988T, PANC-1) were obtained from ATCC (American Type Culture Collection) and cultured in DMEM supplemented with 10% fetal calf serum (FCS, Gibco/BRL), 1% penicillin/streptomycin at 37 °C and 5% CO2. […] For PRMT1 inhibition, cells were treated with type I PRMT inhibitor MS023 hydrochloride (Biomol). For induction of genotoxic stress, cells were treated with gemcitabine (LC Laboratories). […] The following plasmids were used: pFASTBAC-FLAG-rat PRMT1, pFASTBAC-FLAG-mouse PRMT4, and pGEX-GAR. The complete ORFs of human PRMT3 and PRMT6 were inserted into the pFASTBAC HT-3xFLAG B vector via BamHI/HindIII and BamHI/XhoI sites, respectively.
For PRMT protein expression in insect cells, recombinant baculovirus (bacmid) was generated using the Bac-to-Bac baculovirus system (Invitrogen). Sf9 cells were transfected with bacmid DNA using X-tremeGENE HP DNA transfection reagent (Sigma-Aldrich) according to the manufacturer's instructions. After 3–5 days, supernatants were collected, filtered, and used to infect Sf9 cells to amplify the virus. After 2 rounds of virus amplification and estimation of the final P3 virus titer, the P3 virus (2–5 μL/10^6 cells) was applied for large-scale infection of 200 × 10^6 Sf9 cells in suspension culture at a density of 1 × 10^6 cells/mL. Cells were harvested 5–6 days post-infection by centrifugation at 500 g for 5 min at room temperature. Protein purification from baculovirus-infected Sf9 cells was performed as previously described. , Cells were lysed in BC buffer (20 mM HEPES pH 7.9, 250 mM NaCl, 10% (v/v) glycerin, 0.4 mM EDTA, 1 mM DTT) containing a protease inhibitor cocktail (Roche) by 3 freeze-thaw cycles. After centrifugation at 11,000 rpm (Sorval SS34 rotor) and 4 °C for 1 h, the supernatant (whole cell protein extract) was incubated with anti-FLAG M2 Affinity Gel (Cytiva) at 4 °C and under agitation for 4 h. Subsequently, beads were washed in BC buffer containing various NaCl concentrations (once in BC with 1 M NaCl, twice in BC with 500 mM NaCl, twice in BC with 250 mM NaCl and twice in BC with 100 mM NaCl). FLAG-tagged proteins were either maintained bead-bound as a 50% (v/v) slurry in BC buffer with 100 mM NaCl and stored at −80 °C or were eluted in the appropriate elution buffer (depending on the subsequent assay) containing 0.25 mg/mL 3xFLAG peptides (Sigma-Aldrich) at 4 °C for 30–45 min. To remove the FLAG-peptides from the eluate, dialysis was performed in elution buffer containing 10% (v/v) glycerol at 4 °C for 4–6 h using Slide-A-Lyzer Dialysis Devices (Thermo Fisher Scientific) according to the manufacturer’s recommendations.
In the first step, the fluorogenic substrate Nα-Benzoyl-L-arginine-7-amido-4-methylcoumarin (Bz-Arg-AMC, Sigma-Aldrich) undergoes methylation by PRMTs upon the addition of the cofactor SAM. In the second reaction step, trypsin cleaves the nonmethylated substrate, leading to the generation of the 7-amino-4-methylcoumarin product, which can be quantified by subsequent fluorescence measurement (excitation: 355 nm, emission: 460 nm). The first reaction was conducted with bead-bound PRMTs at a total volume of 100 μL. Each condition was performed as a technical triplicate to determine the mean and the standard deviation. […] For the negative controls, SAM was substituted with assay buffer. The incubation was continued at 37 °C and under agitation (1,000 rpm) for a duration of 2 h.

PANC-1 xenografts = test: PDAC xenograft mouse model, tumor growth; format: in vivo; conditions: female athymic nude mice, intraperitoneal, 2 weeks; 150 mg/kg TR-07 daily, 10 mg/kg gemcitabine every second day; n = 5

T1 sequence (O60678 whole entry): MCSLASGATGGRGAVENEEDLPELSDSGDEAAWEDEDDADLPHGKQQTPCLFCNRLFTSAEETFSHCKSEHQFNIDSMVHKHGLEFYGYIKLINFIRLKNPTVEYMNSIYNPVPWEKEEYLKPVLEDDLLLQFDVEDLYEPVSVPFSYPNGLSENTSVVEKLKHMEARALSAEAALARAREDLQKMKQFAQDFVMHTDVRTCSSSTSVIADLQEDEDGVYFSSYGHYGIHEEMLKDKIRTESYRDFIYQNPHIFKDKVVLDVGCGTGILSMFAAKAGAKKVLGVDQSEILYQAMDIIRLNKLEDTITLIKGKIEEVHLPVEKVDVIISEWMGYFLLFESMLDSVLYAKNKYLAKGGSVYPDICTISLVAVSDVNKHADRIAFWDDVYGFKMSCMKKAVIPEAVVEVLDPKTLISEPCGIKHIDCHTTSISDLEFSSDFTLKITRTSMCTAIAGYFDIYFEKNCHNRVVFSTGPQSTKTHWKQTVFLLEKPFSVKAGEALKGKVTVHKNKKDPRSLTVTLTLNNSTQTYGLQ

Row | Compound | apoptosis, caspase 3/7 activity, single agent (PANC-1 cells; TR-07 10 μM or gemcitabine 10 and 25 nM) | gemcitabine-induced apoptosis, caspase 3/7 activity, co-treatment (PANC-1 cells; compound 10 μM, after 2 h gemcitabine 10 and 25 nM) | effect on PRMT3 activity (in words) (FLAG-tagged PRMT3; 100 μM compound) | Experimental result (PRMT3) (FLAG-tagged PRMT3; Table 1, 100 μM compound, 2 μM PRMT, n = 3, racemates used) | Experimental result (PRMT3) (FLAG-tagged PRMT3; Table S3, 100 µM compound, n≥3) | tumor growth of PANC-1 xenografts (PANC-1 xenografts)
1 | CN(C)Cc1cccc(CN/C=C2\C(=O)NC(=O)c3ccccc32)c1.Cl [TR-07, (Z)-1-[3-({[(1,3-Dioxo-2,3-dihydroisoquinolin-4(1H)-lidene)methyl]amino}methyl)phenyl]-N,N-dimethylmethanaminium chloride] | did not significantly induce apoptosis | further significantly enhanced | neither positively nor negatively influencing | PRMT3 n.e. (Compounds, which did not significantly affect the catalytic activity (less than ±6% change or not significant p-value), are marked with [drawing 8] (no effect)) | n.e. (did not significantly affect the catalytic activity (less than ±6% change or not significant p-value), are marked with n.e. (no effect)) | significantly reduced the tumor growth compared to the control mice
2 | (Z)-2-(2-{[(1,3-Dioxo-2,3-dihydroisoquinolin-4(1H)-ylidene)methyl]amino}phenyl)-N,N-dimethylethan-1-aminium chloride [ICTR-059] | – | – | concomitant PRMT3 activation | – | – | –
